Test results: the NIST ThermoML archive (doi:10.1021/je400056z)

Assay: xn = mol fraction of the nth substance listed
Conditions: Liquid, Vibrating tube method

CCCCCCCCCCCCC [tridecane] + O=C=O
Conditions	mass density [kg/m3]
323.16 K, 14000 kPa, x2 = 0.2526	751.2
323.16 K, 14000 kPa, x2 = 0.7549	788.1
323.16 K, 15000 kPa, x2 = 0.0955	748.5
323.16 K, 15000 kPa, x2 = 0.2526	752.1
323.16 K, 15000 kPa, x2 = 0.7549	791.5
323.16 K, 16000 kPa, x2 = 0.0955	749.2
323.16 K, 16000 kPa, x2 = 0.2526	752.9
323.16 K, 16000 kPa, x2 = 0.7549	794.6
323.16 K, 17000 kPa, x2 = 0.0955	750
323.16 K, 17000 kPa, x2 = 0.2526	753.7
323.16 K, 17000 kPa, x2 = 0.7549	798.1
323.16 K, 18000 kPa, x2 = 0.0955	750.7
323.16 K, 18000 kPa, x2 = 0.2526	754.4
323.16 K, 18000 kPa, x2 = 0.7549	801.2
323.16 K, 19000 kPa, x2 = 0.0955	751.4
323.16 K, 19000 kPa, x2 = 0.2526	755.2
323.16 K, 19000 kPa, x2 = 0.7549	804.1
323.16 K, 20000 kPa, x2 = 0.0955	752.1
323.16 K, 20000 kPa, x2 = 0.2526	755.9
323.16 K, 20000 kPa, x2 = 0.7549	807
323.16 K, 21000 kPa, x2 = 0.0955	752.8
323.16 K, 21000 kPa, x2 = 0.2526	756.6
323.16 K, 21000 kPa, x2 = 0.7549	809.5
323.16 K, 22000 kPa, x2 = 0.0955	753.4
323.16 K, 22000 kPa, x2 = 0.2526	757.3
323.16 K, 22000 kPa, x2 = 0.7549	812.4
323.16 K, 23000 kPa, x2 = 0.0955	754.1
323.16 K, 23000 kPa, x2 = 0.2526	758
323.16 K, 23000 kPa, x2 = 0.7549	815
323.16 K, 24000 kPa, x2 = 0.0955	754.7
323.16 K, 24000 kPa, x2 = 0.2526	758.7
323.16 K, 24000 kPa, x2 = 0.7549	817.5
323.16 K, 25000 kPa, x2 = 0.0955	755.3
323.16 K, 25000 kPa, x2 = 0.2526	759.3
323.19 K, 8000 kPa, x2 = 0.5259	758.8
323.19 K, 9000 kPa, x2 = 0.5259	760.1
323.19 K, 10000 kPa, x2 = 0.5259	761.4
323.19 K, 11000 kPa, x2 = 0.5259	762.6
323.19 K, 12000 kPa, x2 = 0.5259	763.8
323.19 K, 13000 kPa, x2 = 0.5259	764.9
323.19 K, 14000 kPa, x2 = 0.5259	766
323.19 K, 15000 kPa, x2 = 0.5259	767.2
323.19 K, 16000 kPa, x2 = 0.5259	768.2
323.19 K, 17000 kPa, x2 = 0.5259	769.3
323.19 K, 18000 kPa, x2 = 0.5259	770.4
323.19 K, 19000 kPa, x2 = 0.5259	771.4
323.19 K, 20000 kPa, x2 = 0.5259	772.4
323.19 K, 21000 kPa, x2 = 0.5259	773.3
323.19 K, 22000 kPa, x2 = 0.5259	774.3
323.19 K, 23000 kPa, x2 = 0.5259	775.3
323.19 K, 24000 kPa, x2 = 0.5259	776.2
323.19 K, 25000 kPa, x2 = 0.5259	777
333.14 K, 13000 kPa, x2 = 0.8978	737.1
333.14 K, 14000 kPa, x2 = 0.8978	745.4
333.14 K, 15000 kPa, x2 = 0.8978	754
333.14 K, 16000 kPa, x2 = 0.8978	761.2
333.14 K, 17000 kPa, x2 = 0.8978	767.9
333.14 K, 18000 kPa, x2 = 0.8978	774.1
333.14 K, 19000 kPa, x2 = 0.8978	779.5
333.14 K, 20000 kPa, x2 = 0.8978	784.8
333.14 K, 21000 kPa, x2 = 0.8978	789.8
333.14 K, 22000 kPa, x2 = 0.8978	794.7
333.14 K, 23000 kPa, x2 = 0.8978	799.2
333.14 K, 24000 kPa, x2 = 0.8978	803.5
333.14 K, 25000 kPa, x2 = 0.8978	807.8
333.16 K, 8000 kPa, x2 = 0.5259	749
333.16 K, 9000 kPa, x2 = 0.5259	750.4
333.16 K, 10000 kPa, x2 = 0.5259	751.7
333.16 K, 11000 kPa, x2 = 0.5259	753
333.16 K, 12000 kPa, x2 = 0.5259	754.2
333.16 K, 13000 kPa, x2 = 0.5259	755.5
333.16 K, 14000 kPa, x2 = 0.5259	756.7
333.16 K, 15000 kPa, x2 = 0.5259	757.9
333.16 K, 16000 kPa, x2 = 0.5259	759
333.16 K, 17000 kPa, x2 = 0.5259	760.2
333.16 K, 18000 kPa, x2 = 0.5259	761.3
333.16 K, 19000 kPa, x2 = 0.5259	762.4
333.16 K, 20000 kPa, x2 = 0.5259	763.4
333.16 K, 21000 kPa, x2 = 0.5259	764.5
333.16 K, 22000 kPa, x2 = 0.5259	765.5
333.16 K, 23000 kPa, x2 = 0.5259	766.5
333.16 K, 24000 kPa, x2 = 0.5259	767.5
333.16 K, 25000 kPa, x2 = 0.5259	768.5
333.28 K, 12000 kPa, x2 = 0.7549	762.3
333.28 K, 13000 kPa, x2 = 0.7549	766.5
333.28 K, 14000 kPa, x2 = 0.7549	769.6
333.28 K, 15000 kPa, x2 = 0.7549	772.6
333.28 K, 16000 kPa, x2 = 0.7549	775.6
333.28 K, 17000 kPa, x2 = 0.7549	778.6
333.28 K, 18000 kPa, x2 = 0.7549	781.5
333.28 K, 19000 kPa, x2 = 0.7549	784.5
333.28 K, 20000 kPa, x2 = 0.7549	787.4
333.28 K, 21000 kPa, x2 = 0.7549	790.4
333.28 K, 22000 kPa, x2 = 0.7549	793.1
333.28 K, 23000 kPa, x2 = 0.7549	795.7
333.28 K, 24000 kPa, x2 = 0.7549	798.4
333.28 K, 25000 kPa, x2 = 0.7549	800.8
333.3 K, 9000 kPa, x2 = 0.0955	736.6
333.3 K, 9000 kPa, x2 = 0.2526	739.5
333.3 K, 10000 kPa, x2 = 0.0955	737.4
333.3 K, 10000 kPa, x2 = 0.2526	740.4
333.3 K, 11000 kPa, x2 = 0.0955	738.3
333.3 K, 11000 kPa, x2 = 0.2526	741.4
333.3 K, 12000 kPa, x2 = 0.0955	739.1
333.3 K, 12000 kPa, x2 = 0.2526	742.3
333.3 K, 13000 kPa, x2 = 0.0955	739.9
333.3 K, 13000 kPa, x2 = 0.2526	743.1
333.3 K, 14000 kPa, x2 = 0.0955	740.8
333.3 K, 14000 kPa, x2 = 0.2526	744
333.3 K, 15000 kPa, x2 = 0.0955	741.6
333.3 K, 15000 kPa, x2 = 0.2526	744.9
333.3 K, 16000 kPa, x2 = 0.0955	742.3
333.3 K, 16000 kPa, x2 = 0.2526	745.7
333.3 K, 17000 kPa, x2 = 0.0955	743.1
